# Experimental data from ChEMBL document CHEMBL5154819 (Eur J Med Chem, 2022).
# Experiments:
# Mus musculus [1] = assay: Analgesic activity in iv dosed ICR mouse assessed as reduction in acetic acid induced writhing administered for 15 mins followed by acetic acid injection and measured within 15 mins; assay type: functional; conditions: 0.5 h, time 30 min
# Rattus norvegicus [2] = organism: Rattus norvegicus; assay: Anti-hyperalgesic activity in carrageenan-induced mechanical hyperalgesia Sprague-Dawley rat model assessed as paw withdrawal threshold measured after 2.5 hrs by paw pressure test; assay type: functional
# Rattus norvegicus [3] = organism: Rattus norvegicus; assay: Antiinflammatory activity in carrageenan-induced Sprague-Dawley rat assessed as paw withdrawal threshold measured after 2.5 hrs by paw pressure test; assay type: functional
# Mus musculus [4] = assay: Analgesic activity in acetic acid induced ICR mouse assessed as average writhing times at 0.13 mg/kg, iv administered for 15 mins followed by acetic acid injection and measured within 15 mins (reference value: 21.1 +/- 16.3); assay type: functional; conditions: time 30 min, 0.5 h
# Mus musculus [5] = assay: Analgesic activity in acetic acid induced ICR mouse assessed as average writhing times at 0.25 mg/kg, iv administered for 15 mins followed by acetic acid injection and measured within 15 mins (reference value: 21.1 +/- 16.3); assay type: functional; conditions: time 30 min, 0.5 h
# Mus musculus [6] = assay: Analgesic activity in acetic acid induced ICR mouse assessed as average writhing times at 0.50 mg/kg, iv administered for 15 mins followed by acetic acid injection and measured within 15 mins (reference value: 21.1 +/- 16.3); assay type: functional; conditions: dose 0.5 mg/kg, time 30 min
# Mus musculus [7] = assay: Analgesic activity in acetic acid induced ICR mouse assessed as average writhing times at 1 mg/kg, iv administered for 15 mins followed by acetic acid injection and measured within 15 mins (reference value: 21.1 +/- 16.3); assay type: functional; conditions: time 30 min, 0.5 h
# Mus musculus [8] = assay: Antinociceptive activity in acetic acid induced ICR mouse assessed as inhibition effect at 0.13 mg/kg, iv administered for 15 mins followed by acetic acid injection and measured within 15 mins; assay type: functional; conditions: 0.5 h, time 30 min
# Mus musculus [9] = assay: Antinociceptive activity in acetic acid induced ICR mouse assessed as inhibition effect at 0.25 mg/kg, iv administered for 15 mins followed by acetic acid injection and measured within 15 mins; assay type: functional; conditions: 0.5 h, time 30 min
# Mus musculus [10] = assay: Antinociceptive activity in acetic acid induced ICR mouse assessed as inhibition effect at 0.50 mg/kg, iv administered for 15 mins followed by acetic acid injection and measured within 15 mins; assay type: functional; conditions: 0.5 h, time 30 min
# Mus musculus [11] = assay: Antinociceptive activity in acetic acid induced ICR mouse assessed as inhibition effect at 1 mg/kg, iv administered for 15 mins followed by acetic acid injection and measured within 15 mins; assay type: functional; conditions: 0.5 h, time 30 min
# [12] = Drug metabolism in Sprague-Dawley rat plasma assessed as trans-(S)-2-(4-(((1S,2R)-2-Hydroxycyclopentyl)methyl)phenyl)propanoic acid metabolite formation at 3 mg/kg, iv measured after 2 hrs by UHPLC-MS/MS analysis; assay type: ADME, organism-based; conditions: in vivo
# [13] = Drug metabolism in Sprague-Dawley rat plasma assessed as cis-(R)-2-(4-(((1R,2R)-2-Hydroxycyclopentyl)methyl)phenyl)propanoic acid metabolite formation at 3 mg/kg, iv measured after 2 hrs by UHPLC-MS/MS analysis; assay type: ADME, organism-based; conditions: in vivo
# [14] = Drug metabolism in Sprague-Dawley rat plasma assessed as cis-(R)-2-(4-(((1S,2S)-2-hydroxycyclopentyl)methyl)phenyl)propanoic acid metabolite formation at 3 mg/kg, iv measured after 2 hrs by UHPLC-MS/MS analysis; assay type: ADME, organism-based; conditions: in vivo
# [15] = Drug metabolism in Sprague-Dawley rat plasma assessed as trans-(R)-2-(4-(((1S,2R)-2-Hydroxycyclopentyl)methyl)phenyl)propanoic acid metabolite formation at 3 mg/kg, iv measured after 2 hrs by UHPLC-MS/MS analysis; assay type: ADME, organism-based; conditions: in vivo
# [16] = Drug metabolism in Beagle dog plasma assessed as cis-(R)-2-(4-(((1R,2R)-2-Hydroxycyclopentyl)methyl)phenyl)propanoic acid metabolite formation at 3 mg/kg, iv measured after 2 hrs by UHPLC-MS/MS analysis; assay type: ADME, organism-based, Canis lupus familiaris; conditions: in vivo
# [17] = Drug metabolism in Beagle dog plasma assessed as cis-(R)-2-(4-(((1S,2S)-2-hydroxycyclopentyl)methyl)phenyl)propanoic acid metabolite formation at 3 mg/kg, iv measured after 2 hrs by UHPLC-MS/MS analysis; assay type: ADME, organism-based, Canis lupus familiaris; conditions: in vivo
# [18] = Drug metabolism in Beagle dog plasma assessed as trans-(R)-2-(4-(((1S,2R)-2-Hydroxycyclopentyl)methyl)phenyl)propanoic acid metabolite formation at 3 mg/kg, iv measured after 2 hrs by UHPLC-MS/MS analysis; assay type: ADME, organism-based, Canis lupus familiaris; conditions: in vivo
# [19] = Plasma protein binding in Sprague-Dawley rat at 600 to 15000 ng/ml measured after 6 hrs by LC-MS/MS analysis; assay type: ADME, cell-free; conditions: dose 600-15000 ng/ml, read-out: PPB
# [20] = Plasma protein binding in CD-1 mouse at 600 to 15000 ng/ml measured after 6 hrs by LC-MS/MS analysis; assay type: ADME, cell-free; conditions: dose 600-15000 ng/ml, read-out: PPB
# [21] = Plasma protein binding in Beagle dog at 600 to 15000 ng/ml measured after 6 hrs by LC-MS/MS analysis; assay type: ADME, cell-free, Canis lupus familiaris; conditions: dose 600-15000 ng/ml, read-out: PPB
# [22] = Plasma protein binding in cynomolgus monkey at 600 to 15000 ng/ml measured after 6 hrs by LC-MS/MS analysis; assay type: ADME, cell-free, Macaca fascicularis; conditions: dose 600-15000 ng/ml, read-out: PPB
# [23] = Plasma protein binding in human at 600 to 15000 ng/ml measured after 1 to 8 hrs by LC-MS/MS analysis; assay type: ADME, cell-free; conditions: dose lower 600 ng/ml, time lower 1 hrs, dose upper 15000 ng/ml, time upper 8 hrs, read-out: PPB
# [24] = Toxicity in male Sprague-Dawley rat assessed as decrease in RBC level at 10 mg/kg , iv administered every day for 4 weeks; assay type: organism-based, Erythrocyte; set-up: scale not given: the % may be the effect or the level left; conditions: in vivo, 672 h
# [25] = Toxicity in female Sprague-Dawley rat assessed as decrease in RBC level at 10 mg/kg , iv administered every day for 4 weeks; assay type: organism-based, Erythrocyte; set-up: scale not given: the % may be the effect or the level left; conditions: in vivo, 672 h
# [26] = Toxicity in male Sprague-Dawley rat assessed as decrease in hemoglobin level at 10 mg/kg , iv administered every day for 4 weeks; assay type: organism-based; set-up: scale not given: the % may be the effect or the level left; conditions: in vivo, 672 h
# [27] = Toxicity in female Sprague-Dawley rat assessed as decrease in hemoglobin level at 10 mg/kg , iv administered every day for 4 weeks; assay type: organism-based; set-up: scale not given: the % may be the effect or the level left; conditions: in vivo, 672 h
# [28] = Toxicity in Sprague-Dawley rat assessed as change in red cell distribution width at 10 mg/kg , iv administered every day for 4 weeks; assay type: organism-based; conditions: in vivo, 672 h
# [29] = Toxicity in Sprague-Dawley rat assessed as change in mean corpuscular hemoglobin concentration at 10 mg/kg , iv administered every day for 4 weeks; assay type: organism-based; conditions: in vivo, 672 h
# [30] = Toxicity in Sprague-Dawley rat assessed as effect on reticulocytes at 10 mg/kg , iv administered every day for 4 weeks; assay type: organism-based; conditions: in vivo, 672 h
# [31] = Toxicity in Sprague-Dawley rat assessed as change in RBC level at 10 mg/kg , iv administered every day for 4 weeks and measured after 8 weeks; assay type: organism-based, Erythrocyte; conditions: in vivo, 1344 h
# [32] = Toxicity in Sprague-Dawley rat assessed as change in hemoglobin level at 10 mg/kg , iv administered every day for 4 weeks and measured after 8 weeks; assay type: organism-based; conditions: in vivo, 1344 h
# [33] = Toxicity in Sprague-Dawley rat assessed as red cell distribution width at 10 mg/kg , iv administered every day for 4 weeks and measured after 8 weeks; assay type: organism-based; conditions: in vivo, 1344 h
# [34] = Toxicity in Sprague-Dawley rat assessed as change in mean corpuscular hemoglobin concentration at 10 mg/kg , iv administered every day for 4 weeks and measured after 8 weeks; assay type: organism-based; conditions: in vivo, 1344 h
# [35] = Toxicity in Sprague-Dawley rat assessed as effect on reticulocytes at 10 mg/kg , iv administered every day for 4 weeks and measured after 8 weeks; assay type: organism-based; conditions: in vivo, 1344 h
# [36] = Toxicity in Beagle dog assessed as change in RBC level at 10 mg/kg , iv administered every day for 4 weeks; assay type: organism-based, Canis lupus familiaris, Erythrocyte; conditions: in vivo, 672 h
# [37] = Toxicity in Beagle dog assessed as change in hemoglobin level at 10 mg/kg , iv administered every day for 4 weeks; assay type: organism-based, Canis lupus familiaris; conditions: in vivo, 672 h
# [38] = Toxicity in Beagle dog assessed as change in red cell distribution width at 10 mg/kg , iv administered every day for 4 weeks; assay type: organism-based, Canis lupus familiaris; conditions: in vivo, 672 h
# [39] = Toxicity in Beagle dog assessed as change in mean corpuscular hemoglobin concentration at 10 mg/kg , iv administered every day for 4 weeks; assay type: organism-based, Canis lupus familiaris; conditions: in vivo, 672 h
# [40] = Toxicity in Beagle dog assessed as effect on reticulocytes at 10 mg/kg, iv administered every day for 4 weeks; assay type: organism-based, Canis lupus familiaris; conditions: in vivo, 672 h
# [41] = Toxicity in NZW rabbit assessed as infiltration of inflammatory cells at 10 mg/kg/day, iv administered once daily for 7 days and measured after 3 to 14 days by H and E staining based optical microscopy analysis; assay type: organism-based, Oryctolagus cuniculus; conditions: in vivo, time 3-14 day
# [42] = Toxicity in NZW rabbit assessed as necrosis in endothelial cells at 10 mg/kg/day, iv administered once daily for 7 days and measured after 3 to 14 days by H and E staining based optical microscopy analysis; assay type: organism-based, Oryctolagus cuniculus; conditions: in vivo, time 3-14 day
# [43] = Solubility of the compound in pre-warmed distilled water at 500 mg measured after 30 mins by HPLC analysis; assay type: physicochemical
compound,measurement,setting,value
C[C@H](C(=O)O)c1ccc(C[C@H]2CCC[C@@H]2O)cc1.NC(CO)(CO)CO,ED50,Mus musculus [1],0.43 mg/kg
same,ED50,Rattus norvegicus [2],1.28 mg/kg
same,ED50,Rattus norvegicus [3],8.01 mg/kg
same,Activity,Mus musculus [4],19
same,Activity,Mus musculus [5],12.8
same,Activity,Mus musculus [6],7.7
same,Activity,Mus musculus [7],6.7
same,inhibition in vivo at 0.13 mg/kg,Mus musculus [8],10%
same,inhibition in vivo at 0.25 mg/kg,Mus musculus [9],39.3%
same,inhibition in vivo at 0.5 mg/kg,Mus musculus [10],63.5%
same,inhibition in vivo at 1 mg/kg,Mus musculus [11],68.2%
same,Drug metabolism,[12],Metabolite_Notdetected
same,Drug metabolism,[13],Metabolite_Notdetected
same,Drug metabolism,[14],Metabolite_Notdetected
same,Drug metabolism,[15],Metabolite_Notdetected
same,Drug metabolism,[16],Metabolite_Notdetected
same,Drug metabolism,[17],Metabolite_Notdetected
same,Drug metabolism,[18],Metabolite_Notdetected
same,fraction unbound at 6 h,[19],< 0.3
same,fraction unbound at 6 h,[20],< 0.3
same,fraction unbound at 6 h,[21],< 0.3
same,fraction unbound at 6 h,[22],< 0.3
same,fraction unbound,[23],< 0.05
same,Activity,[24],< 10%
same,Activity,[25],< 10%
same,Activity,[26],< 10%
same,Activity,[27],< 10%
same,Activity,[28],Non-Toxic
same,Activity,[29],Non-Toxic
same,Activity,[30],Non-Toxic
same,Activity,[31],Non-Toxic
same,Activity,[32],Non-Toxic
same,Activity,[33],Non-Toxic
same,Activity,[34],Non-Toxic
same,Activity,[35],Non-Toxic
same,Activity,[36],Non-Toxic
same,Activity,[37],Non-Toxic
same,Activity,[38],Non-Toxic
same,Activity,[39],Non-Toxic
same,Activity,[40],Non-Toxic
same,Activity,[41],Non-Toxic
same,Activity,[42],Non-Toxic
same,solubility at 0.5 h,[43],176 mg/mL
